# Laboratory results reported in PubChem BioAssay (NCI).
#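 Results reflect a 48-hour exposure of cells in 96-well plates to compound at five concentrations. GI50: concentration for 50% inhibition of growth. TGI: concentration producing complete growth inhibition.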
# Tests used:
# Experiment in all cases: NCI-60 cell line screen, 48 h
# [1] = test system: RPMI-8226 leukemia
# [2] = test system: K-562 leukemia
# [3] = test system: CAKI-1 renal
# [4] = test system: PC-3 prostate
# [5] = test system: SK-OV-3 ovarian
# [6] = test system: BT-549 breast
# [7] = test system: NCI-H226 lung
# [8] = test system: SNB-19 CNS
# [9] = test system: COLO 205 colon
# [10] = test system: KM12 colon
# [11] = test system: HOP-92 NSCLC
# [12] = test system: U251 CNS
# [13] = test system: LOX IMVI melanoma
# [14] = test system: MOLT-4 leukemia
# [15] = test system: A498 renal
# [16] = test system: TK-10 renal
# [17] = test system: 786-0 renal
# [18] = test system: MDA-MB-231 breast
# [19] = test system: NCI-H460 lung
# [20] = test system: SW-620 colon
# [21] = test system: HCT-116 colon
# [22] = test system: ACHN renal
# [23] = test system: OVCAR-5 ovarian
# [24] = test system: UACC-62 melanoma
# [25] = test system: HCT-15 colon
# [26] = test system: T-47D breast
# [27] = test system: UACC-257 melanoma
# [28] = test system: SF-268 CNS
# [29] = test system: DU-145 prostate
# [30] = test system: OVCAR-3 ovarian
# [31] = test system: SN12C renal
# [32] = test system: SR leukemia
# [33] = test system: SK-MEL-5 melanoma
# [34] = test system: HS 578T breast
# [35] = test system: UO-31 renal
# [36] = test system: SK-MEL-2 melanoma
# [37] = test system: OVCAR-4 ovarian
# [38] = test system: A549 NSCLC
# [39] = test system: RXF 393 renal
# [40] = test system: EKVX NSCLC
# [41] = test system: MDA-MB-435
# [42] = test system: MALME-3M melanoma
# [43] = test system: SF-539 CNS
# [44] = test system: HOP-62 NSCLC
# [45] = test system: SF-295 CNS
# [46] = test system: OVCAR-8 ovarian
# [47] = test system: HT29 colon
# [48] = test system: SK-MEL-28 melanoma
# [49] = test system: MCF7 breast
# [50] = test system: NCI-H522 lung
# [51] = test system: IGROV1 ovarian
# [52] = test system: M14 melanoma
# [53] = test system: HCC-2998 colon
# [54] = test system: NCI-H23 lung
# [55] = test system: NCI/ADR-RES ovarian
smiles,measurement,setting,value
Cn1ccc2c1SSSSS2,GI50,[1],20.9 µM
same,TGI,[1],52.9 µM
same,GI50,[2],23.2 µM
same,TGI,[2],> 100 µM
same,GI50,[3],22.4 µM
same,TGI,[3],45.7 µM
same,GI50,[4],25.3 µM
same,TGI,[4],66.4 µM
same,GI50,[5],37.5 µM
same,TGI,[5],> 100 µM
same,GI50,[6],61.4 µM
same,TGI,[6],> 100 µM
same,GI50,[7],21.5 µM
same,TGI,[7],51 µM
same,GI50,[8],36 µM
same,TGI,[8],> 100 µM
same,GI50,[9],15.1 µM
same,TGI,[9],41.6 µM
same,GI50,[10],17 µM
same,TGI,[10],35.8 µM
same,GI50,[11],2.88 µM
same,TGI,[11],7.66 µM
same,GI50,[12],40 µM
same,TGI,[12],> 100 µM
same,GI50,[13],24.8 µM
same,TGI,[13],71 µM
same,GI50,[14],28.5 µM
same,TGI,[14],> 100 µM
same,GI50,[15],> 100 µM
same,TGI,[15],> 100 µM
same,GI50,[16],27.1 µM
same,TGI,[16],68.9 µM
same,GI50,[17],26.4 µM
same,TGI,[17],58.7 µM
same,GI50,[18],17.9 µM
same,TGI,[18],45.8 µM
same,GI50,[19],47.6 µM
same,TGI,[19],> 100 µM
same,GI50,[20],29.1 µM
same,TGI,[20],84.7 µM
same,GI50,[21],17.4 µM
same,TGI,[21],31.1 µM
same,GI50,[22],28.4 µM
same,TGI,[22],73.3 µM
same,GI50,[23],23 µM
same,TGI,[23],47.1 µM
same,GI50,[24],17.3 µM
same,TGI,[24],34.6 µM
same,GI50,[25],33.8 µM
same,TGI,[25],> 100 µM
same,GI50,[26],11.8 µM
same,TGI,[26],47.6 µM
same,GI50,[27],52.3 µM
same,TGI,[27],> 100 µM
same,GI50,[28],30.8 µM
same,TGI,[28],> 100 µM
same,GI50,[29],31.7 µM
same,TGI,[29],> 100 µM
same,GI50,[30],16.5 µM
same,TGI,[30],36.1 µM
same,GI50,[31],21 µM
same,TGI,[31],42 µM
same,GI50,[32],4.6 µM
same,TGI,[32],33.8 µM
same,GI50,[33],16.5 µM
same,TGI,[33],35.9 µM
same,GI50,[34],28.8 µM
same,TGI,[34],71.2 µM
same,GI50,[35],36 µM
same,TGI,[35],> 100 µM
same,GI50,[36],49.6 µM
same,TGI,[36],> 100 µM
same,GI50,[37],21.8 µM
same,TGI,[37],56 µM
same,GI50,[38],52.2 µM
same,TGI,[38],> 100 µM
same,GI50,[39],28.9 µM
same,TGI,[39],> 100 µM
same,GI50,[40],44.5 µM
same,TGI,[40],> 100 µM
same,GI50,[41],23.7 µM
same,TGI,[41],53.8 µM
same,GI50,[42],11.2 µM
same,TGI,[42],41.6 µM
same,GI50,[43],25.6 µM
same,TGI,[43],69.8 µM
same,GI50,[44],> 100 µM
same,TGI,[44],> 100 µM
same,GI50,[45],41.3 µM
same,TGI,[45],> 100 µM
same,GI50,[46],96.7 µM
same,TGI,[46],> 100 µM
same,GI50,[47],24.1 µM
same,TGI,[47],59.6 µM
same,GI50,[48],21.1 µM
same,TGI,[48],47.5 µM
same,GI50,[49],17.4 µM
same,TGI,[49],43.2 µM
same,GI50,[50],32.1 µM
same,TGI,[50],> 100 µM
same,GI50,[51],35.9 µM
same,TGI,[51],> 100 µM
same,GI50,[52],18 µM
same,TGI,[52],35.6 µM
same,GI50,[53],17.1 µM
same,TGI,[53],33 µM
same,GI50,[54],18.9 µM
same,TGI,[54],36.4 µM
same,GI50,[55],22.8 µM
same,TGI,[55],54.7 µM
